US9018258B2, “Substituted 1-benzylcycloalkylcarboxylic acids and the use thereof” (Bayer Intellectual Property GmbH, priority 2010, dated 2015)

Assays:
GAL4-PPARα = molecular target: T1, GAL4-PPARα (Homo sapiens, UniProt Q07869); assay: Cellular PPAR transactivation assay, GAL4-PPARα chimera in CHO-K1 cells; type: cell-based; conditions: for Emax: CHO-K1, maximum effect relative to reference compound (Example 73 of EP 1 452 521-A1 = 100%), read-out: PPARα efficacy; for EC50: CHO-K1 cells, luciferase reporter, 6 h stimulation
T1 construct: expressed in transfected cells
T1 sequence (Q07869 167-468): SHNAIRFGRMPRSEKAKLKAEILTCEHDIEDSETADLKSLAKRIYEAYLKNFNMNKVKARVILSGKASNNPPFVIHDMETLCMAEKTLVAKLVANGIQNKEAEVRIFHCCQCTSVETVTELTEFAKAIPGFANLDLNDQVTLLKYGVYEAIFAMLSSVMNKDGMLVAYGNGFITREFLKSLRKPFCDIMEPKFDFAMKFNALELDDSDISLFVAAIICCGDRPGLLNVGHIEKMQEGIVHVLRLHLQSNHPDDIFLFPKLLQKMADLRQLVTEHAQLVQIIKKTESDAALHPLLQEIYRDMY
Source text: (§1) A cellular assay is used to test for potentially activating properties of the compounds according to the invention with respect to the three human isoforms of the peroxisome proliferator-activated receptors (PPARα, PPARγ and PPARδ).
(§2) Since mammalian cells contain different endogenous nuclear receptors which may complicate an unambiguous interpretation of the results, an established chimera system is used in which the respective ligand binding domain of the human PPAR isoforms is fused to the DNA binding domain of the yeast transcription factor GAL4. The resulting GAL4-PPARα, γ and δ chimeras are co-transfected and stably expressed in CHO cells having a reporter construct.
(§3) The GAL4-PPAR expression constructs contain the ligand binding domain of PPARα (amino acids 167-468), PPARγ (amino acids 203-506) and PPARδ (amino acids 138-442) which are PCR-amplified and cloned into the vector pcDNA3.1. The respective expression vectors already contain the GAL4 DNA binding domain (amino acids 1-147) of the vector pFC2-dbd (Stratagene). The reporter construct, which contains five copies of the GAL4 binding site upstream of a thymidine kinase promoter, expresses firefly luciferase (Photinus pyralis) following activation and binding of GAL4-PPARα, γ or δ.
(§4) The day before the test, CHO-K1 cells (chinese hamster ovary; ATCC CCL-61) each stably expressing one of the above-described GAL4-PPAR chimeras and the luciferase reporter gene construct are sown in medium [Optimem (GIBCO) with 2% activated carbon-purified foetal calf serum (Hyclone), 1.35 mM sodium pyruvate (GIBCO) and 0.2% sodium bicarbonate (GIBCO)] in a density of 1×10^3 cells in 96-well microtitre plates (Greiner) and kept in a cell incubator (96% atmospheric humidity, 5% v/v CO2, 37° C.). On the test day, the substances to be tested are taken up in the medium mentioned above, but without addition of calf serum, and added in various concentrations to the cells. After a stimulation period of 6 h, the luciferase activity is measured using a video camera. The relative light units measured give, as a function of the substance concentration, a sigmoidal stimulation curve. The EC50 values are calculated using the computer programme GraphPad PRISM (Version 3.02). The maximum effect of a test substance in the respective PPAR assay is determined as efficacy in percent in comparison to an appropriate reference compound whose maximum effect is defined as 100%.
(§5) The reference compound selected here was the compound 2-(3-{[(2-chloro-4-propoxybenzoyl)-amino]methyl}-4-ethoxybenzyl)tetrahydrofuran-2-carboxylic acid [Example 73 of EP 1 452 521-A1] which is described in the prior art as a potent pan-PPAR agonist.

[1] = molecular target: T2, soluble guanylate cyclase (sGC) (Rattus norvegicus, UniProt P20595); assay: Stimulation of sGC enzyme activity (PPi detection, luciferase); type: biochemical; conditions: sGC enzyme in vitro; for EC50: read-out: EC50 (concentration at 50% of maximum efficacy), activating action at the sGC enzyme
T2 construct: made in house; host or cells: Sf9 insect cells (baculovirus)
Protocol: Soluble guanylate cyclase (sGC) converts on stimulation GTP into cGMP and pyrophosphate (PPi). PPi is detected with the aid of the assay described below. The signal produced in the assay increases as the reaction progresses and serves as a measure of the sGC enzyme activity under the given stimulation.
To carry out the assay, 29 μl of enzyme solution [0-10 nM soluble guanylate cyclase (prepared according to Honicka et al., J. Mol. Med. 77, 14-23 (1999)) in 50 mM TEA, 2 mM MgCl2, 0.1% BSA (fraction V), 0.005% Brij®, pH 7.5] are initially introduced into a microplate, and 1 μl of the substance to be tested (as a serially diluted solution in DMSO) is added. The mixture is incubated at room temperature for 10 min. Then 20 μl of detection mix [1.2 nM Firefly Luciferase (Photinus pyralis luciferase, Promega), 29 μM dehydroluciferin (prepared according to Bitler & McElroy, Arch. Biochem. Biophys. 72, 358 (1957)), 122 μM luciferin (Promega), 153 μM ATP (Sigma) and 0.4 mM DTT (Sigma) in 50 mM TEA, 2 mM MgCl2, 0.1% BSA (fraction V), 0.005% Brij®, pH 7.5] are added. The enzyme reaction is started by adding 20 μl of substrate solution [1.25 mM guanosine 5′-triphosphate (Sigma) in 50 mM TEA, 2 mM MgCl2, 0.1% BSA (fraction V), 0.005% Brij®, pH 7.5] and measured continuously in a luminometer. The extent of the stimulation by the substance to be tested can be determined relative to the signal of the unstimulated reaction.
The activation of haem-free guanylate cyclase is examined by addition of 25 μM of 1H-1,2,4-oxadiazolo[4,3-a]quinoxalin-1-one (ODQ) to the enzyme solution and subsequent incubation for 30 minutes and compared to the stimulation of the native enzyme.

sGC = molecular target: T3, sGC (Rattus norvegicus, UniProt P20595); assay: Action at a recombinant guanylate cyclase reporter cell line (CHO reporter cell); type: cell-based; conditions: CHO reporter cell in vitro
T3 construct: expressed in transfected cells; host or cells: CHO reporter cell
Protocol: The cellular action of the compounds according to the invention is determined at a recombinant guanylate cyclase reporter cell line, as described in F. Wunder et al., Anal. Biochem. 339, 104-112 (2005).

GAL4-PPARγ = molecular target: T4, GAL4-PPARγ (Homo sapiens, UniProt P37231); assay: Cellular PPAR transactivation assay, GAL4-PPARγ chimera in CHO-K1 cells; type: cell-based; conditions: for Emax: CHO-K1, maximum effect relative to reference compound (Example 73 of EP 1 452 521-A1 = 100%), read-out: PPARγ efficacy; for EC50: CHO-K1 cells, luciferase reporter, 6 h stimulation
T4 construct: PPARγ (amino acids 203-506); expressed in transfected cells
T4 sequence (P37231 203-505 limits assumed): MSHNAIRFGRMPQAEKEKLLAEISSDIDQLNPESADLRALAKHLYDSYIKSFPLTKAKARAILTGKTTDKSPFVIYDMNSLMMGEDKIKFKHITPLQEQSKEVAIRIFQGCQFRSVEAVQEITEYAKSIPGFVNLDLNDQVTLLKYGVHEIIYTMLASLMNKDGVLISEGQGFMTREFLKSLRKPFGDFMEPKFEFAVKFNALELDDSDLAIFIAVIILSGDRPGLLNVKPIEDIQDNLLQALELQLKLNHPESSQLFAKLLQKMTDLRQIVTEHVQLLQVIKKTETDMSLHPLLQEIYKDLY
Source text: as §1, §2, §3, §4, §5

GAL4-PPARδ = molecular target: T5, GAL4-PPARδ (Homo sapiens, UniProt Q03181); assay: Cellular PPAR transactivation assay, GAL4-PPARδ chimera in CHO-K1 cells; type: cell-based; conditions: for Emax: CHO-K1, maximum effect relative to reference compound (Example 73 of EP 1 452 521-A1 = 100%), read-out: PPARδ efficacy; for EC50: CHO-K1 cells, luciferase reporter, 6 h stimulation
T5 construct: PPARδ (amino acids 138-442); expressed in transfected cells
T5 sequence (Q03181 138-441 limits assumed): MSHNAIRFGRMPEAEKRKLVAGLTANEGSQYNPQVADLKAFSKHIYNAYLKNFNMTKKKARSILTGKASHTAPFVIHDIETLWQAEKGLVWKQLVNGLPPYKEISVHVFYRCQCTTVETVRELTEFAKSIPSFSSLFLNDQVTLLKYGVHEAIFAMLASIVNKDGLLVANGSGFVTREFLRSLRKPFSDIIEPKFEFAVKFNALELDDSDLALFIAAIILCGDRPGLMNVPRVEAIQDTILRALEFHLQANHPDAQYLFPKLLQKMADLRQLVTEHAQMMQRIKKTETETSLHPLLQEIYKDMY
Source text: as §1, §2, §3, §4, §5

T2 sequence (P19686 whole entry partner): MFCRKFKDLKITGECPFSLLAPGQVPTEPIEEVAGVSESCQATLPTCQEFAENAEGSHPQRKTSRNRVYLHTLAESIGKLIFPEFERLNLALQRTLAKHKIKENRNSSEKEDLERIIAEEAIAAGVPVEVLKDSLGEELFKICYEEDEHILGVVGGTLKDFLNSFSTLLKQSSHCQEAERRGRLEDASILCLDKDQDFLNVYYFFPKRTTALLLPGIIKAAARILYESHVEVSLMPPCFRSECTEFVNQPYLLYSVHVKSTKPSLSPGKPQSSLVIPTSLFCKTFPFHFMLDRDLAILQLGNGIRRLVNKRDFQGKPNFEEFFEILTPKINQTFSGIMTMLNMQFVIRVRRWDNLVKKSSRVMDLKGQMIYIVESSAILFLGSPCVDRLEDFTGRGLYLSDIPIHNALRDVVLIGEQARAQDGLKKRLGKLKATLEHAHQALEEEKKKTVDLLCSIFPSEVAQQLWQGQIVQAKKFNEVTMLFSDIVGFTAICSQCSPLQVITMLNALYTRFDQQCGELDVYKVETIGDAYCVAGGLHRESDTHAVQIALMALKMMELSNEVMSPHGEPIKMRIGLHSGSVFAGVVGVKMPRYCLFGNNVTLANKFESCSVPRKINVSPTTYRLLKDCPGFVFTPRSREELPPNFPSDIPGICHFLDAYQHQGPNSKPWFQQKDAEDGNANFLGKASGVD
T2 sequence (P20595 whole entry): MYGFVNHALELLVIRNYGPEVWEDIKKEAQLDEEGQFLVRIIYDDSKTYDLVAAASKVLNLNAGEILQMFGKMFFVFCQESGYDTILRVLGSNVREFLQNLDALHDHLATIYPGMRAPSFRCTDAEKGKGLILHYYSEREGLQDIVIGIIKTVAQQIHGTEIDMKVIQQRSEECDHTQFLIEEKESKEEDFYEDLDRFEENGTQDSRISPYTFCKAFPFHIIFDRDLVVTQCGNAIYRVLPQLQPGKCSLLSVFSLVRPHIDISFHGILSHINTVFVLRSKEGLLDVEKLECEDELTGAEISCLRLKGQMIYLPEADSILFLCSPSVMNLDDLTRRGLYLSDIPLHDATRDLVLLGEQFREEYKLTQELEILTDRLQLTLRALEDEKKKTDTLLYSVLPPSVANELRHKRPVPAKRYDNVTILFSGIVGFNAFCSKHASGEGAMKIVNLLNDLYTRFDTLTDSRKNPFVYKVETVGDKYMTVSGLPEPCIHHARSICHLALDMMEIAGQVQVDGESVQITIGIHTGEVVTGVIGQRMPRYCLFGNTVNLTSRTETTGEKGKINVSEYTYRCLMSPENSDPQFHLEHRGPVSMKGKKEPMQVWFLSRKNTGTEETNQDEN
T3 sequence (P19686 whole entry partner): as the sequence (P19686 whole entry partner) above
T3 sequence (P20595 whole entry): as the sequence (P20595 whole entry) above

| SMILES | Emax (GAL4-PPARα) [%] | EC50 (GAL4-PPARα) [nM] | MEC (minimum effective concentration), activating action at the sGC enzyme [1] [nM] | EC50 [1] [nM] | MEC (minimum effective concentration), sGC-activating activity in the CHO reporter cell (sGC) [nM] | Emax (GAL4-PPARγ) [%] | EC50 (GAL4-PPARγ) [nM] | Emax (GAL4-PPARδ) [%] | EC50 (GAL4-PPARδ) [nM] |
| --- | --- | --- | --- | --- | --- | --- | --- | --- | --- |
| C[C@H]([C@H](C(=O)Nc1cc(CC2(C(=O)O)CC2)ccc1Cl)c1ccc(Cl)cc1F)C(F)(F)F [Example 32, (+)-1-(4-chloro-3-{[(2S,3R)-2-(4-chloro-2-fluoro-phenyl)-4,4,4-trifluoro-3-methylbutanoyl]-amino}benzyl)cyclopropanecarboxylic acid] | 0 | > 10000 | 0.9 | 7.3 | 2.3 | 30 | 1900 | 0 | > 10000 |
| COC(c1ccc(Cl)c(NC(=O)[C@H](c2ccc(Cl)cc2)[C@@H](C)C(F)(F)F)c1)C1(C(=O)O)CCC1 (single isomer, unassigned) [Example 107] | 0 | > 10000 | 22 | 330 | 3 | 10 | 2000 | 0 | > 10000 |
| COC(c1ccc(Cl)c(NC(=O)[C@H](c2ccc(Cl)cc2)[C@@H](C)C(F)(F)F)c1)C1(C(=O)O)CC1 (single isomer, unassigned; (+)) [Example 89] | 0 | > 10000 | 3.9 | 70 | 3 | 0 | > 10000 | 0 | > 10000 |
| [2H]C([2H])([2H])OC(c1ccc(Cl)c(NC(=O)[C@H](c2ccc(Cl)cc2)[C@@H](C)C(F)(F)F)c1)C1(C(=O)O)CCC1 (single isomer, unassigned) [Example 105] | 0 | > 10000 | 36 | 240 | 3 | 10 | – | 0 | > 10000 |
| O=C(Nc1cc(CC2(C(=O)O)CC2)ccc1Cl)C(c1ccc(Cl)cc1)C1CCC(F)(F)C1 (single isomer, unassigned) [Example 73, 1-(4-Chloro-3-{[(4-chlorophenyl)(3,3-difluorocyclopentyl)acetyl]amino}benzyl)cyclopropane-carboxylic acid] | 0 | > 10000 | 3.8 | 83 | 1.7 | 0 | > 10000 | 0 | > 10000 |
| COc1cc([C@@H](C(=O)Nc2cc(CC3(C(=O)O)CC3)ccc2Cl)[C@@H](C)C(F)(F)F)ccc1Cl [Example 43, 1-(4-chloro-3-{[(2S,3R)-2-(4-chloro-3-methoxy-phenyl)-4,4,4-trifluoro-3-methylbutanoyl]amino}-benzyl)cyclopropanecarboxylic acid] | 0 | > 10000 | 3.4 | 24 | 3 | 10 | 1800 | 0 | > 10000 |
| O=C(Nc1cc(CC2(C(=O)O)CC2)ccc1F)[C@H](c1ccc(Cl)cc1)C1CCCC1(F)F (single isomer, unassigned; (+)) [Example 68] | 0 | > 10000 | 2.6 | 45 | 1 | 0 | > 10000 | 0 | > 10000 |
| O=C(Nc1cc(CC2(C(=O)O)CC2)ccc1F)[C@H](c1ccc(Cl)cc1)C1CCCC1 (single isomer, unassigned) [Example 62] | – | – | 2.2 | 30 | 1 | – | – | – | – |
| C[C@H]([C@H](C(=O)Nc1cc(CC2(C(=O)O)CC2)ccc1F)c1ccc(Cl)cc1)C(F)(F)F [Example 51, (+)-1-(3-{[(2S,3R)-2-(4-Chlorophenyl)-4,4,4-trifluoro-3-methylbutanoyl]amino}-4-fluorobenzyl)-cyclopropanecarboxylic acid] | 0 | > 10000 | 3.0 | 21 | 0.3 | 20 | 1900 | 0 | > 10000 |
